Assay results: US20130338130A1 (priority 2009, published 2013)
In brackets after ≈: the same amount, converted by molar mass. Where two headings read alike, the source gives them in different places.

What was measured:
[1] = test system: ATCC strain 43300 Staphylococcus aureus; settings: ATCC strain 43300 (MRSA); cited from earlier work
[2] = test system: ATCC strain 43300 Staphylococcus aureus; settings: for survival (cfu/ml): 24 hours, triplicate platings
Procedure: Additional antibiotic was added every 24 hours. The growth periods tested were 24 (FIG. 5), 48, 72, 96 and 120 hours.
(§1) USP<51> Antimicrobial Effectiveness protocol was used as the template experimental paradigm. […] All concentrations were plated out to the 10^−7 dilutions to ascertain cfu/ml. […] Additional antibiotic was added at the initial concentration every 24 hours.
ATCC strain 43300 Staphylococcus aureus was streaked out for isolations. An isolated colony was chosen, streaked again and incubated. Isolate was chosen and then diluted to a McFarland standard of one. The estimated value was then taken to inoculate tubes containing growth media and 12, 30 or 60 μg/ml methicillin with approximately 10^5 cfu/ml. These tubes were incubated and plated for counting cfu.
Material was calculated on a 10 ml volume. Sterile methicillin was added to each experimental condition to a final concentration of 12, 30 or 60 μg/ml antibiotic. Lactose Broth positive controls both with and without the 12 μg/ml, 30 μg/ml, 60 μg/ml antibiotic were inoculated with MRSA. […] Tubes were set up in singlet, but plated in triplicate, as described below.
All tubes were then inoculated with a dilution of the selected ATCC strain 43300 Staphylococcus aureus clone giving a final level of colony forming units of 1.49×10^5/ml (log=5.17). The tubes were incubated at 25° C. and mixed periodically. Antibiotic was re-inoculated every 24 hours at the initial concentration to maintain pressure on the organism. Plating was done at 24, 48, 72, and 120 hours. Each condition was plated by diluting 1 ml of growth material into 9 ml of MLB diluent broth. […] This mixture was serial diluted down to 10^−7 with 1 ml placed in triplicate in a sterile petri dish at each dilution point. 20 mls of TSA was added to each dilution, swirled and allowed to solidify. All dilutions were placed in a 35° C. incubator for 24 to 72 hours. Bacterial colonies on each plate were counted and the average taken then changed into log format. […] Graphs were recorded as log of 5.2 for TNTC to show comparison among the other data points.
The tubes were spun down at 5000 rpm for 10 minutes. The supernatant was then decanted into 90 mls of Mueller-Hinton broth with 6 μg/ml methicillin. This is for enrichment and the recovery of any MRSA cells that may be present wether healthy or stressed. The pellet had 10 mls Mueller-Hinton broth with 6 μg/ml methicillin added to it to recover any cells that may be present. Both vessels were incubated at 35° C. for 48 hours and plated each 24 hours. Each vessel was plated at 10 dilutions to obtain a 1 cfu detection limit. Since all vessels were at a 1/10 dilution in the enrichment solution plating each vessel in this manner gave us a detection limit of 1 cfu/ml. […] This time point for graphing purposes will be reported as 0 logs.

[3] = test system: ATCC strain 43300 Staphylococcus aureus
Procedure: Additional antibiotic was added every 24 hours. The growth periods tested were 24 (see FIG. 4), 48, 72, 96 and 120 hours.
as §1
ATCC strain 43300 Staphylococcus aureus was streaked out for isolations. An isolated colony was chosen, streaked again and incubated. Isolate was chosen and then diluted to a McFarland standard of one. The estimated value was then taken to inoculate tubes containing growth media and 12, 30 or 60 μg/ml oxacillin with approximately 10^5 cfu/ml. These tubes were incubated and plated for counting cfu. A clone having no observed log reduction in cfu was selected for the rest of the experiment.
Material was calculated on a 10 ml volume. Sterile oxacillin was added to each experimental condition to a final concentration of 12, 30 or 60 μg/ml antibiotic.
All tubes were then inoculated with a dilution of the selected ATCC strain 43300 Staphylococcus aureus clone giving a final level of colony forming units of 3.3×10^5/ml (log=5.52). The tubes were incubated at 25° C. and mixed periodically. Antibiotic was re-inoculated every 24 hours at the initial concentration to maintain pressure on the organism. Plating was done at 24, 48, 72, and 120 hours. Each condition was plated by diluting 1 ml of growth material into 9 ml of MLB diluent broth. […] This mixture was serial diluted down to 10^−7 with 1 ml placed in triplicate in a sterile petri dish at each dilution point. 20 mls of TSA was added to each dilution, swirled and allowed to solidify. All dilutions were placed in a 35° C. incubator for 24 to 72 hours. Bacterial colonies on each plate were counted and the average taken then changed into log format. Any cfu/ml observed greater than 3.3×10^5 (log=5.5) were recorded as >3.3×10^5.
The tube was then taken out of the experiment and tested for ATCC strain 43300 Staphylococcus growth. The tube was spun down at 5000 rpm for 10 minutes. The supernatant was then decanted into 90 mls of Mueller-Hinton broth with 6 μg/ml oxacillin. This is for enrichment and the recovery of any MRSA cells that may be present whether healthy or stressed. The pellet had 10 mls Mueller-Hinton broth with 6 μg/ml oxacillin added to it to recover any cells that may be present. Both vessels were incubated at 35° C. for 48 hours followed by plating every 24 hours. Each vessel was plated at 10 dilutions to obtain a 1 cfu detection limit.

Compound: COc1cccc(OC)c1C(=O)N[C@@H]1C(=O)N2[C@@H]1SC(C)(C)[C@@H]2C(=O)O [methicillin, reference compound]
- MIC [1]: 6 µg/mL (≈ 15.8 µM)
- survival (cfu/ml) ([2]; 12 μg/ml methicillin (re-added every 24 hours) + MSM (% in label), inoculum 1.49×10^5/ml): TNTC
- survival (cfu/ml) ([2]; 30 μg/ml methicillin + MSM (% in label)): TNTC
- survival (cfu/ml) ([2]; 60 μg/ml methicillin + MSM (% in label)): TNTC
- decrease in colony forming units from the initial inoculums value ([2]; methicillin alone, 12 μg/ml, 30 μg/ml and 60 μg/ml): no significant decrease in colony forming units

Compound: Cc1onc(-c2ccccc2)c1C(=O)N[C@@H]1C(=O)N2[C@@H]1SC(C)(C)[C@@H]2C(=O)O [oxacillin, reference compound]
- MIC [1]: 6 µg/mL (≈ 14.9 µM)
- survival (cfu/ml) ([3]; 12 μg/ml oxacillin (re-added every 24 hours) + MSM (% in label), 24 hours, three columns = triplicate platings, inoculum 3.3×10^5/ml): >3.3 × 10^5 cfu/ml
- survival, Average Log ([3]; 12 μg/ml oxacillin + MSM (% in label), 24 hours): 5.5 Log
- survival, Average Log ([3]; 12 μg/ml oxacillin + MSM (% in label), 48 hours): 5.5 Log
- survival (cfu/ml) ([3]; 12 μg/ml oxacillin + MSM (% in label), 48 hours, triplicate platings): >3.3 × 10^5 cfu/ml
- survival, Average Log ([3]; 12 μg/ml oxacillin + MSM (% in label), 72 hours): 5.5 Log
- survival (cfu/ml) ([3]; 12 μg/ml oxacillin + MSM (% in label), 72 hours, triplicate platings): >3.3 × 10^5 cfu/ml
- survival, Average Log ([3]; 12 μg/ml oxacillin + MSM (% in label), 96 hours): 5.5 Log
- survival (cfu/ml) ([3]; 12 μg/ml oxacillin + MSM (% in label), 96 hours, triplicate platings): >3.3 × 10^5 cfu/ml
- survival, Average Log ([3]; 12 μg/ml oxacillin + MSM (% in label), 120 hours): 5.5 Log
- survival (cfu/ml) ([3]; 12 μg/ml oxacillin + MSM (% in label), 120 hours, triplicate platings): >3.3 × 10^5 cfu/ml
- survival, Average Log ([3]; 30 μg/ml oxacillin + MSM (% in label), 24 hours): 5.5 Log
- survival (cfu/ml) ([3]; 30 μg/ml oxacillin + MSM (% in label), 24 hours, triplicate platings): >3.3 × 10^5 cfu/ml
- survival, Average Log ([3]; 30 μg/ml oxacillin + MSM (% in label), 48 hours): 5.5 Log
- survival (cfu/ml) ([3]; 30 μg/ml oxacillin + MSM (% in label), 48 hours, triplicate platings): >3.3 × 10^5 cfu/ml
- survival, Average Log ([3]; 30 μg/ml oxacillin + MSM (% in label), 72 hours): 5.5 Log
- survival (cfu/ml) ([3]; 30 μg/ml oxacillin + MSM (% in label), 72 hours, triplicate platings): >3.3 × 10^5 cfu/ml
- survival, Average Log ([3]; 30 μg/ml oxacillin + MSM (% in label), 96 hours): 5.5 Log
- survival (cfu/ml) ([3]; 30 μg/ml oxacillin + MSM (% in label), 96 hours, triplicate platings): >3.3 × 10^5 cfu/ml
- survival, Average Log ([3]; 30 μg/ml oxacillin + MSM (% in label), 120 hours): 5.5 Log
- survival (cfu/ml) ([3]; 30 μg/ml oxacillin + MSM (% in label), 120 hours, triplicate platings): >3.3 × 10^5 cfu/ml
- survival, Average Log ([3]; 60 μg/ml oxacillin + MSM (% in label), 24 hours): 5.5 Log
- survival (cfu/ml) ([3]; 60 μg/ml oxacillin + MSM (% in label), 24 hours, triplicate platings): >3.3 × 10^5 cfu/ml
- survival, Average Log ([3]; 60 μg/ml oxacillin + MSM (% in label), 48 hours): 5.5 Log
- survival (cfu/ml) ([3]; 60 μg/ml oxacillin + MSM (% in label), 48 hours, triplicate platings): >3.3 × 10^5 cfu/ml
- survival, Average Log ([3]; 60 μg/ml oxacillin + MSM (% in label), 72 hours): 5.5 Log
- survival (cfu/ml) ([3]; 60 μg/ml oxacillin + MSM (% in label), 72 hours, triplicate platings): >3.3 × 10^5 cfu/ml
- survival, Average Log ([3]; 60 μg/ml oxacillin + MSM (% in label), 96 hours): 5.5 Log
- survival (cfu/ml) ([3]; 60 μg/ml oxacillin + MSM (% in label), 96 hours, triplicate platings): >3.3 × 10^5 cfu/ml
- survival, Average Log ([3]; 60 μg/ml oxacillin + MSM (% in label), 120 hours): 5.5 Log
- survival (cfu/ml) ([3]; 60 μg/ml oxacillin + MSM (% in label), 120 hours, triplicate platings): >3.3 × 10^5 cfu/ml
- decrease in colony forming units from the initial inoculums value ([3]; oxacillin alone, 12 μg/ml, 30 μg/ml and 60 μg/ml): no significant decrease in colony forming units
